PubChem BioAssay AID248 (DTP/NCI, 2004)
Several values for one entry are separate records, joined by “and”; a condition that tells them apart may be missing. Equal values may be shown once. Inconclusive results and toxic doses are left out. Rule as the data show it: active = T/C of 150% or more; inactive = T/C below 125%.

Test system: L1210 leukemia ip in BDF1 mice, survival T/C
Assay: NCI In Vivo Anticancer Drug Screen. Data for tumor model L1210 Leukemia (intraperitoneal) in B6D2F1 (BDF1) mice
Settings: endpoint: mean survival time, higher = longer survival
In short: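 Value reflects the ratio of survival in compound-treated mice to survival in vehicle-treated controls, with both groups carrying the same transplanted tumor.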

[1] = dose: 100.0 mg/kg/injection, schedule: Q04DX003 (ip), vehicle: Klucel (hydroxypropylcellulose) (HPC)
[2] = dose: 200.0 mg/kg/injection, schedule: Q04DX003 (ip), vehicle: Klucel (hydroxypropylcellulose) (HPC)
[3] = dose: 400.0 mg/kg/injection, schedule: Q04DX003 (ip), vehicle: Klucel (hydroxypropylcellulose) (HPC)
[4] = dose: 100.0 mg/kg/injection, schedule: Q01DX009 (ip), vehicle: Klucel (hydroxypropylcellulose) (HPC)
[5] = dose: 100.0 mg/kg/injection, schedule: Q01DX001 (ip), vehicle: saline
[6] = dose: 200.0 mg/kg/injection, schedule: Q01DX001 (ip), vehicle: saline
[7] = dose: 100.0 mg/kg/injection, schedule: Q04DX003 (ip), vehicle: saline with Tween-80
[8] = dose: 200.0 mg/kg/injection, schedule: Q04DX003 (ip), vehicle: saline with Tween-80
[9] = dose: 400.0 mg/kg/injection, schedule: Q04DX003 (ip), vehicle: saline with Tween-80
[10] = dose: 25.0 mg/kg/injection, schedule: Q01DX009 (ip), vehicle: saline
[11] = dose: 50.0 mg/kg/injection, schedule: Q01DX009 (ip), vehicle: saline
[12] = dose: 50.0 mg/kg/injection, schedule: Q04DX003 (ip), vehicle: saline
[13] = dose: 100.0 mg/kg/injection, schedule: Q01DX009 (ip), vehicle: saline
[14] = dose: 100.0 mg/kg/injection, schedule: Q04DX003 (ip), vehicle: saline
[15] = dose: 200.0 mg/kg/injection, schedule: Q04DX003 (ip), vehicle: saline
[16] = dose: 150.0 mg/kg/injection, schedule: Q01DX001 (ip), vehicle: saline

Measured: T/C

C[n+]1ccccc1SC12CC3CC(CC(C3)C1)C2
inactive: dose: 10.0 mg/kg/injection, schedule: Q01DX009 (ip), vehicle: Klucel (hydroxypropylcellulose) (HPC) 113 % of control

C/C(CC(O)(C(F)(F)F)C(F)(F)F)=N\N1CCCCCC1
inactive: [1] 97 % of control | [2] 103 % of control | [3] 94 % of control

Cc1cc(N=Nc2c(C)ccc3ncccc23)ccc1N
inactive: dose: 3.12 mg/kg/injection, schedule: Q01DX001 (ip), vehicle: DMSO 90 % of control | dose: 6.25 mg/kg/injection, schedule: Q01DX001 (ip), vehicle: DMSO 98 % of control | dose: 12.5 mg/kg/injection, schedule: Q01DX001 (ip), vehicle: DMSO 98 % of control

Nc1ccc(-c2ccccc2)cc1Br
inactive: dose: 15.0 mg/kg/injection, schedule: Q01DX001 (ip), vehicle: carboxymethylcellulose (CMC) 101 % of control | dose: 30.0 mg/kg/injection, schedule: Q01DX001 (ip), vehicle: carboxymethylcellulose (CMC) 96 % of control

CSc1ccc(OC(=O)Nc2cccc(F)c2)cc1
inactive: dose: 100.0 mg/kg/injection, schedule: Q01DX001 (ip), vehicle: Klucel (hydroxypropylcellulose) (HPC) 88 % of control | [4] 105 % of control and 109 % of control | dose: 100.0 mg/kg/injection, schedule: Q04DX002 (ip), vehicle: Klucel (hydroxypropylcellulose) (HPC) 101 % of control and 91 % of control | [1] 104 % of control and 124 % of control | dose: 200.0 mg/kg/injection, schedule: Q01DX001 (ip), vehicle: Klucel (hydroxypropylcellulose) (HPC) 101 % of control | dose: 200.0 mg/kg/injection, schedule: Q01DX009 (ip), vehicle: Klucel (hydroxypropylcellulose) (HPC) 100 % of control and 101 % of control | dose: 200.0 mg/kg/injection, schedule: Q04DX002 (ip), vehicle: Klucel (hydroxypropylcellulose) (HPC) 94 % of control and 98 % of control | [2] 107 % of control and 120 % of control | dose: 400.0 mg/kg/injection, schedule: Q01DX001 (ip), vehicle: Klucel (hydroxypropylcellulose) (HPC) 104 % of control | dose: 400.0 mg/kg/injection, schedule: Q01DX009 (ip), vehicle: Klucel (hydroxypropylcellulose) (HPC) 109 % of control and 90 % of control | dose: 400.0 mg/kg/injection, schedule: Q04DX002 (ip), vehicle: Klucel (hydroxypropylcellulose) (HPC) 93 % of control and 94 % of control | [3] 104 % of control

CC1([N+](=O)[O-])COP(=O)(Nc2ccccc2F)OC1 (stereo not drawn)
inactive: dose: 100.0 mg/kg/injection, schedule: Q01DX001 (ip), vehicle: carboxymethylcellulose (CMC) 101 % of control | dose: 200.0 mg/kg/injection, schedule: Q01DX001 (ip), vehicle: carboxymethylcellulose (CMC) 95 % of control | dose: 400.0 mg/kg/injection, schedule: Q01DX001 (ip), vehicle: carboxymethylcellulose (CMC) 104 % of control

N#Cc1cn(C2OC(CO)C(O)C2O)c2ncn3ccnc3c12 (stereo not drawn)
inactive: dose: 100.0 mg/kg/injection, schedule: Q04DX003 (ip), vehicle: water 116 % of control | dose: 200.0 mg/kg/injection, schedule: Q04DX003 (ip), vehicle: water 113 % of control and 117 % of control | dose: 300.0 mg/kg/injection, schedule: Q04DX003 (ip), vehicle: water 121 % of control | dose: 500.0 mg/kg/injection, schedule: Q04DX003 (ip), vehicle: water 107 % of control

Cc1cnc2cccc(C)c2c1Cl
inactive: dose: 50.0 mg/kg/injection, schedule: Q01DX001 (ip), vehicle: saline 101 % of control | [5] 97 % of control | [6] 95 % of control

CSc1nnc(-c2ccc(OCCOc3ccc(C(C)(C)CC(C)(C)C)cc3)cc2)s1
inactive: [7] 89 % of control | [8] 94 % of control | [9] 91 % of control

CC1C[N-]1.CC1C[N-]1.[Cl][Pt+2][Cl] (stereo not drawn)
inactive: [10] 102 % of control | [11] 103 % of control | [12] 95 % of control | [13] 101 % of control | [14] 98 % of control | [15] 98 % of control

CCOC(=O)NC(C)(C)CN(C(=O)OCC)c1ccccc1
inactive: [7] 111 % of control | [8] 108 % of control | [9] 106 % of control

c1ccc2c(c1)C1C3CCC(C3)C21 (stereo not drawn)
inactive: [7] 98 % of control | [9] 98 % of control

O=S(=O)(Nc1ccc(NS(=O)(=O)c2ccccc2)cc1)c1ccccc1
inactive: dose: 100.0 mg/kg/injection, schedule: Q01DX009 (ip), vehicle: saline sonified 97 % of control | [1] 93 % of control | dose: 200.0 mg/kg/injection, schedule: Q01DX009 (ip), vehicle: saline sonified 104 % of control | [2] 98 % of control | dose: 400.0 mg/kg/injection, schedule: Q01DX009 (ip), vehicle: saline sonified 98 % of control | [3] 90 % of control

CCOC(=O)C(CCP(=O)(OCC)OCC)P(=O)(OCC)OCC (stereo not drawn)
inactive: dose: 12.5 mg/kg/injection, schedule: Q04DX002 (ip), vehicle: saline 99 % of control | dose: 25.0 mg/kg/injection, schedule: Q04DX002 (ip), vehicle: saline 96 % of control | dose: 50.0 mg/kg/injection, schedule: Q04DX002 (ip), vehicle: saline 115 % of control | [5] 101 % of control | [6] 95 % of control | dose: 400.0 mg/kg/injection, schedule: Q01DX001 (ip), vehicle: saline 98 % of control

CC(C)(C)C1(C)CNC(=O)O1 (stereo not drawn)
inactive: dose: 6.0 mg/kg/injection, schedule: Q01DX009 (ip), vehicle: Klucel (hydroxypropylcellulose) (HPC) 100 % of control | dose: 12.0 mg/kg/injection, schedule: Q01DX009 (ip), vehicle: Klucel (hydroxypropylcellulose) (HPC) 104 % of control | dose: 25.0 mg/kg/injection, schedule: Q01DX009 (ip), vehicle: Klucel (hydroxypropylcellulose) (HPC) 102 % of control | dose: 25.0 mg/kg/injection, schedule: Q04DX003 (ip), vehicle: Klucel (hydroxypropylcellulose) (HPC) 102 % of control | dose: 50.0 mg/kg/injection, schedule: Q01DX009 (ip), vehicle: Klucel (hydroxypropylcellulose) (HPC) 101 % of control | dose: 50.0 mg/kg/injection, schedule: Q04DX003 (ip), vehicle: Klucel (hydroxypropylcellulose) (HPC) 102 % of control | [4] 101 % of control | [1] 95 % of control and 89 % of control

CCOC(=O)c1cnc2c(OC)cccc2c1Cl
inactive: [13] 98 % of control | [14] 102 % of control | dose: 200.0 mg/kg/injection, schedule: Q01DX009 (ip), vehicle: saline 96 % of control | [15] 109 % of control | dose: 400.0 mg/kg/injection, schedule: Q04DX003 (ip), vehicle: saline 98 % of control

CCCCCCCCCCCCCCCCSc1ccc2ccccc2c1
inactive: [1] 100 % of control | [2] 96 % of control | [3] 87 % of control

CCCCC(=O)NC1=CC(=O)c2ccccc2C1=O
inactive: dose: 75.0 mg/kg/injection, schedule: Q01DX001 (ip), vehicle: saline 95 % of control | [16] 91 % of control

CN=C(NC)c1ccc(NC(=O)c2ccc(C(=O)Nc3ccc(C(=NC)NC)cc3)c([N+](=O)[O-])c2)cc1
inactive: dose: 1.88 mg/kg/injection, schedule: Q01DX Z (ip), vehicle: saline 100 % of control | dose: 3.75 mg/kg/injection, schedule: Q01DX Z (ip), vehicle: saline 111 % of control | dose: 7.5 mg/kg/injection, schedule: Q01DX Z (ip), vehicle: saline 108 % of control

CC(/C=N/NC(N)=S)=N\N=C(N)N
inactive: dose: 15.0 mg/kg/injection, schedule: Q01DX Z (ip), vehicle: carboxymethylcellulose (CMC) 98 % of control | dose: 30.0 mg/kg/injection, schedule: Q01DX Z (ip), vehicle: carboxymethylcellulose (CMC) 101 % of control | dose: 60.0 mg/kg/injection, schedule: Q01DX Z (ip), vehicle: carboxymethylcellulose (CMC) 98 % of control | dose: 120.0 mg/kg/injection, schedule: Q01DX Z (ip), vehicle: carboxymethylcellulose (CMC) 98 % of control

CCN(CC)CCc1ccccn1
inactive: dose: 12.5 mg/kg/injection, schedule: Q01DX009 (ip), vehicle: saline 98 % of control | [10] 100 % of control | dose: 25.0 mg/kg/injection, schedule: Q04DX003 (ip), vehicle: saline 106 % of control | [11] 100 % of control | [12] 103 % of control

O=C(NS(=O)(=O)c1ccc(Cl)cc1)OCCCl
inactive: [1] 96 % of control | [2] 95 % of control | [3] 98 % of control

CCC(C)N1C(=O)CCC1=O (stereo not drawn)
inactive: [16] 101 % of control | dose: 300.0 mg/kg/injection, schedule: Q01DX001 (ip), vehicle: saline 101 % of control | dose: 600.0 mg/kg/injection, schedule: Q01DX001 (ip), vehicle: saline 101 % of control
